{"source": "paper PMC8766756", "about": "“Insights on Cancer Cell Inhibition, Subcellular Activities, and Kinase Profile of Phenylacetamides Pending 1H-Imidazol-5-One Variants” (Frontiers in Pharmacology, 2022)", "key": {"[1]": {"biological_target": "T1, RYK (H0Y8A4) (Homo sapiens, UniProt P34925)", "T1 construct": "purchased PamGene (PamChip PTK array, Upstream Kinase Analysis)", "T1 sequence (P34925 26-607, one chain of several)": "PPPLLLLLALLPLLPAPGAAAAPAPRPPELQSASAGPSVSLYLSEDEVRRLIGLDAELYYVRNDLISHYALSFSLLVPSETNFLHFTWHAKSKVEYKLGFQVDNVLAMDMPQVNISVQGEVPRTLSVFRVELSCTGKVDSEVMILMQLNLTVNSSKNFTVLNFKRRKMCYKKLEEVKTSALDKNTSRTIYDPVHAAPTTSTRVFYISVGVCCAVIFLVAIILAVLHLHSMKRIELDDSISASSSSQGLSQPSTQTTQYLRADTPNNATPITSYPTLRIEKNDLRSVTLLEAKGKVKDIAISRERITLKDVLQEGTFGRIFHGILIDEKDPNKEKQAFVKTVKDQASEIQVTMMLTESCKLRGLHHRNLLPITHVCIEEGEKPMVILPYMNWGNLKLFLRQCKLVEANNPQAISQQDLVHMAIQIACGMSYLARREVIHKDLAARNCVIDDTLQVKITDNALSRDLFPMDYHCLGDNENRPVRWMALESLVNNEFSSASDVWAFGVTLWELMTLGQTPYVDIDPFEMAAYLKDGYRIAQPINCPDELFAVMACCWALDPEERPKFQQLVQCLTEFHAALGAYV", "assay": "PamChip tyrosine kinase microarray", "assay_type": "biochemical", "conditions": "0.1 µM, HL60 lysate", "procedure,_shortened": "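HL60 (AML) cell lysate was spiked with compound at 0.001, 0.01, 0.1, 1, 10 and 50 µM, or 2% v/v DMSO as control, then profiled in technical replicates on a tyrosine kinase peptide array of 196 phosphosites. Kinase activity was inferred from peptide-set changes using an upstream kinase tool.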"}, "[2]": {"test_system": "HL60 leukemia cell line", "assay": "CellTiter-Blue cell viability assay", "assay_type": "cell-based", "conditions": "Homo sapiens, HL-60, 48 h, read-out: IC50 ± SEM HL60", "experimental": "(§1) The compounds were screened for their anticancer activities against a variety of cancer cell lines. The cytotoxic effect of the compounds was evaluated using the sulforhodamine B (SRB) cytotoxicity assay for breast cancer line (MCF7) and prostate cancer cell line (PC3) ([Vichai and Kirtikara, 2006]; [Rana et al., 2021]) and 3-(4,5-dimethylthiazol-2-yl)-2,5-diphenyl-2H-tetrazolium bromide (MTT) assay for the colon cancer (HCT116) cell lines ([El-Huneidi et al., 2020]). The CellTiter-Blue® cell viability assay was performed on the various leukemia cell lines, HL60, NB4, and KG1a cells ([Akter et al., 2019]). The IC50 values are illustrated in Table 1.\n(§2) HL60, NB4, and KG1a were purchased from CLS Cell Line Service GmbH (Eppelheim, Germany). All cell lines were cultured in RPMI-1640 medium supplemented with 10% FBS (Thermo Fisher Scientific) and ciprofloxacin (10 μg/ml; Cipla Limited; Mumbai, India), at 37°C with 5% CO2 in a humidified incubator.\n(§3) The CellTiter-Blue® Cell Viability assay was acquired from Promega Corporation (Madison, WI, USA). The cell viability assay was performed as follows: the cells (10^4/well) were incubated with a concentration gradient of the test compounds ranging from 0.01 to 100 μM, in 96-well plates for 48 h at 37°C. Subsequently, 20 µL of the CellTiter-Blue® Cell Viability reagent was added to each well and incubated for an additional 2 h for the development of fluorescence. The fluorescence emission was measured at 590 nm using the SpectraMax® i3x Multi-Mode Microplate Reader (Molecular Devices, LLC; San Jose, CA, USA.) and plotted against the drug concentrations to determine the IC50 of the test compounds."}, "[3]": {"test_system": "KG1a leukemia cell line", "assay": "CellTiter-Blue cell viability assay", "assay_type": "cell-based", "conditions": "Homo sapiens, KG-1a, 48 h", "experimental": "as §1, §2, §3"}, "[4]": {"test_system": "NB4 leukemia cell line", "assay": "CellTiter-Blue cell viability assay", "assay_type": "cell-based", "conditions": "Homo sapiens, NB-4, 48 h", "experimental": "as §1, §2, §3"}, "[5]": {"assay": "Stability in mouse plasma", "assay_type": "in vitro ADME", "conditions": "1 µM, t1/2; listed as KIM-161", "experimental": "The assay was conducted at 37°C in triplicate. The test compound KIM-161 or procaine (the positive control) was tested at a final concentration of 1 µM in either 2.5% DMSO/CD-1 mouse plasma (Innovative Research, Novi, MI; sodium heparin added as anticoagulant; pH adjusted to 7.4 with 2N HCl on the day of use) or 2.5% DMSO/PBS (pH 7.4; 136.9 mM NaCl, 2.68 mM KCl, 8.1 mM Na2HPO4, 1.47 mM KH2PO4, 0.9 mM CaCl2, and 0.49 mM MgCl2). At seven time points, the reaction mixture aliquots were transferred to 96-shallow-well stop plates on ice containing acetonitrile with 0.1 µM propafenone. Samples were analyzed by LC/MS/MS on a Waters Xevo TQ instrument as described above using positive electrospray ionization. The assay acceptance criterion was 20% for all standards and 25% for the LLOQ. GraphPad® Prism v.5.04 was used for nonlinear fitting of data to generate t1/2 values."}}}
{"smiles": "COc1ccc(/C=C2\\N=C(C)N(c3ccc(CC(=O)NCc4ccccc4)cc3)C2=O)cc1", "note": "[Compound 4c, (Z)-N-Benzyl-2-(4-(4-(4-methoxybenzylidene)-2-methyl-5-oxo-4,5-dihydro-1H-imidazol-1-yl)phenyl)acetamide]", "values": [{"measurement": "Mean Final score (Kinase score)", "setting": "[1]", "result": 2.574}, {"measurement": "Mean Kinase Statistic", "setting": "[1]", "result": -1.293}, {"measurement": "Mean Significance Score", "setting": "[1]", "result": 2.048}, {"measurement": "Mean Specificity Score", "setting": "[1]", "result": 0.5126}, {"measurement": "IC50", "setting": "[2]", "result": "0.362 ± 0.02", "unit": "µM"}, {"measurement": "IC50", "setting": "[3]", "result": 0.893, "unit": "µM"}, {"measurement": "IC50", "setting": "[4]", "result": 0.275, "unit": "µM"}, {"measurement": "Stability in mouse plasma at 37°C", "setting": "[5]", "result": ">300", "unit": "min"}]}
